“Also recorded” adds a separate entry of the source.
Assay: UV-vis stability in PBS, DMEM and RPMI-1640
Type: physicochemical
Conditions: 50 μM, DMEM, RPMI-1640, 37 °C, over 24 h
Source text: We next evaluated the stability of all ten complexes in three relevant biological media, namely, PBS (phosphate-buffered saline), DMEM (Dulbecco's modified eagle medium), and RPMI-1640 (Roswell Park Memorial Institute-1640). RPMI-1640 contain several biological nucleophiles such as amino acids and extracellular relevant levels of GSH, which are common sources of reductants. Development of new drug molecules require proper characterization of compound stability in solution. To evaluate their stability, the complexes were prepared as a stock solution in DMSO (5 mM) and diluted with PBS or DMEM at room temperature to a final concentration of 50 μM. […]
UV-vis Stability in DMEM, PBS and RPMI-1640 at 37 °C. All spectra were recorded on a Shimadzu UV-1280 model instrument. […] Time periods of t = 0 h (after preparation of sample), 1 h, 6 h, 12 h, and 24 h were recorded. […] The absorbance profile was scanned from 650 nm to 240 nm for each scan. For each complex, the data were normalized to the highest absorbance at t = 0 h and plotted in GraphPad Prism 6. […]
Reactivity with GSH (UV-vis Spectroscopy). […] All spectra were recorded on a Shimadzu UV-1280 model instrument.
A blank was prepared by mixing 50 µL of DMSO and 1.95 mL of PBS. Time intervals of 5 minutes and 12 h were recorded. […] For each reaction, the spectrum was normalized to the highest absorbance and plotted in GraphPad Prism 6. […]

C[N+](C)=C1[S][Au-2]2([S]1)[c]1ccccc1Cc1cccc[n+]12.F[P-](F)(F)(F)(F)F (centres unmarked) [2a]
Stability in biological media (UV-vis absorbance): higher stability in PBS, and DMEM; also recorded: no significant decrease in absorbance

C[N+](C)=C1[S][Au-2]2([S]1)[c]1ccccc1C(=O)c1cccc[n+]12.F[P-](F)(F)(F)(F)F (centres unmarked) [1a]
Stability in biological media (UV-vis absorbance): no significant decrease in absorbance

Reference: paper PMC8162438, “Cancer cell-selective modulation of mitochondrial respiration and metabolism by potent organogold(III) dithiocarbamates” (Chemical Science, 2020)
